In article PMC7377239, “Cardiovascular Effects of Polychlorinated Biphenyls and Their Major Metabolites” (Environmental Health Perspectives, 2020):
Counter-ions that a name gives are not always drawn. Like-named read-outs stand apart in the source and are kept apart here.

Key:
[1] = tested on: iPSC-CMs, iPSC-ECs and HUVECs phenotypes; assay: ToxPi 2.0 integration of POD values and physicochemical descriptors; set-up: species or system human; details: ToxPi-scaled (0-1) score; for huvec.cyto.24hr / huvec.mito.24hr / huvec.mitoint.24hr / huvec.nma.24hr / huvec.tc.24hr / huvec.mtl.18hr / huvec.tlps.18hr / huvec.tta.18hr / huvec.ttl.18hr: HUVECs; for huvec.mtl.18hr / huvec.tlps.18hr / huvec.tta.18hr / huvec.ttl.18hr / endo.mtl.18hr / endo.tlps.18hr / endo.tta.18hr / endo.ttl.18hr: tube formation; for cm.amp.avg.90min / cm.amp.cv.90min / cm.bpm.90min / cm.cam.90min / cm.decay.rise.90min / cm.mii.90min / cm.mito.90min / cm.spacing.cv.90min / cm.tc.90min / cm.amp.avg.24hrs / cm.amp.cv.24hrs / cm.bpm.24hrs / cm.cam.24hrs / cm.decay.rise.24hrs / cm.mii.24hrs / cm.mito.24hrs / cm.spacing.cv.24hrs / cm.tc.24hrs: iPSC cardiomyocytes; for endo.cyto.24hr / endo.mito.24hr / endo.mitoint.24hr / endo.nma.24hr / endo.tc.24hr / endo.mtl.18hr / endo.tlps.18hr / endo.tta.18hr / endo.ttl.18hr: iPSC endothelial cells
In short: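 Phenotypic readouts in iPSC-cardiomyocytes, iPSC-endothelial cells and HUVECs were normalised to 0.5% DMSO vehicle and fitted to a four-parameter logistic model. POD set at one SD cutoff of vehicle means, with 100 μM assigned when no response. PODs and physicochemical descriptors combined in ToxPi 2.0 scores.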

[2] = tested on: iCell cardiomyocytes (human iPSC-derived cardiomyocytes); assay: High-content imaging of cytotoxicity and mitochondrial integrity in iPSC-CMs; type: cell-based; details: Homo sapiens, Cardiomyocyte, cardiomyocytes (cm)
In short: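 Readouts from high-content images were normalized to vehicle controls containing 0.5% vol/vol DMSO. They were fit to a four-parameter logistic model in R. Points of departure were set using a cutoff of one standard deviation across vehicle control means. Where no concentration–response was seen, the top tested concentration of 100μM was assigned as the no observable adverse effect level.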

[3] = 1.5 h, cam, 90 min, read-out: POD cm.cam.90min
[4] = 1.5 h, mii, 90 min, read-out: POD cm.mii.90min
[5] = 1.5 h, mito, 90 min, read-out: POD cm.mito.90min
[6] = 1.5 h, tc, 90 min, read-out: POD cm.tc.90min
[7] = 24 h, cam, 24 hrs, read-out: POD cm.cam.24hrs
[8] = 24 h, mii, 24 hrs, read-out: POD cm.mii.24hrs
[9] = 24 h, mito, 24 hrs, read-out: POD cm.mito.24hrs
[10] = 24 h, tc, 24 hrs, read-out: POD cm.tc.24hrs

Clc1cc(Cl)c(-c2cc(Cl)c(Cl)cc2Cl)cc1Cl [PCB 153, 2,2′,4,4′,5,5′-hexachlorobiphenyl]
huvec.cyto.24hr [1]: 0.8978
huvec.mito.24hr [1]: 0.5815
huvec.mitoint.24hr [1]: 0.9487
huvec.nma.24hr [1]: 0.5857
huvec.tc.24hr [1]: 0.8978
huvec.mtl.18hr [1]: 0.3619
huvec.tlps.18hr [1]: 0.09107
huvec.tta.18hr [1]: 0.4811
huvec.ttl.18hr [1]: 1
cm.amp.avg.90min [1]: 0.6441
cm.amp.cv.90min [1]: 0.2203
cm.bpm.90min [1]: 0.7602
cm.cam.90min [1]: 0.6527
cm.decay.rise.90min [1]: 0.5479
cm.mii.90min [1]: 0
cm.mito.90min [1]: 0.6603
cm.spacing.cv.90min [1]: 0.07557
cm.tc.90min [1]: 0.6003
cm.amp.avg.24hrs [1]: 0
cm.amp.cv.24hrs [1]: 0.175
cm.bpm.24hrs [1]: 0.4569
cm.cam.24hrs [1]: 0.2888
cm.decay.rise.24hrs [1]: 0.5277
cm.mii.24hrs [1]: 0.2429
cm.mito.24hrs [1]: 0.486
cm.spacing.cv.24hrs [1]: 0.2007
cm.tc.24hrs [1]: 0.5053
endo.cyto.24hr [1]: 0.2934
endo.mito.24hr [1]: 0.2934
endo.mitoint.24hr [1]: 1
endo.nma.24hr [1]: 0.08276
endo.tc.24hr [1]: 0.1249
endo.mtl.18hr [1]: 1
endo.tlps.18hr [1]: 0.6326
endo.tta.18hr [1]: 0.297
endo.ttl.18hr [1]: 0.4748
minimal effective concentration [2, 3]: 20.6 µM
minimal effective concentration [2, 4]: 100 µM
minimal effective concentration [2, 5]: 19.8 µM
minimal effective concentration [2, 6]: 23.2 µM
minimal effective concentration [2, 7]: 11.6 µM
minimal effective concentration [2, 8]: 39.9 µM
minimal effective concentration [2, 9]: 10.5 µM
minimal effective concentration [2, 10]: 11.1 µM

Oc1ccc(-c2cccc(Cl)c2)cc1Cl [4-OH-PCB 11]
huvec.cyto.24hr [1]: 0.4438
huvec.mito.24hr [1]: 0.5256
huvec.mitoint.24hr [1]: 0.5773
huvec.nma.24hr [1]: 0.5884
huvec.tc.24hr [1]: 0.4438
huvec.mtl.18hr [1]: 0.5918
huvec.tlps.18hr [1]: 0.1971
huvec.tta.18hr [1]: 0
huvec.ttl.18hr [1]: 0.4794
cm.amp.avg.90min [1]: 0.7012
cm.amp.cv.90min [1]: 0.353
cm.bpm.90min [1]: 0.1603
cm.cam.90min [1]: 0.5301
cm.decay.rise.90min [1]: 0.5246
cm.mii.90min [1]: 0.417
cm.mito.90min [1]: 0.3722
cm.spacing.cv.90min [1]: 0.09289
cm.tc.90min [1]: 0.417
cm.amp.avg.24hrs [1]: 0
cm.amp.cv.24hrs [1]: 0.6637
cm.bpm.24hrs [1]: 0.3605
cm.cam.24hrs [1]: 0.33
cm.decay.rise.24hrs [1]: 0.2928
cm.mii.24hrs [1]: 0.2219
cm.mito.24hrs [1]: 0.5458
cm.spacing.cv.24hrs [1]: 0.4379
cm.tc.24hrs [1]: 0.5639
endo.cyto.24hr [1]: 0.145
endo.mito.24hr [1]: 0.145
endo.mitoint.24hr [1]: 0.2813
endo.nma.24hr [1]: 0.4122
endo.tc.24hr [1]: 0.08397
endo.mtl.18hr [1]: 0.181
endo.tlps.18hr [1]: 0.1031
endo.tta.18hr [1]: 0.1681
endo.ttl.18hr [1]: 0.1683
minimal effective concentration [2, 3]: 27.7 µM
minimal effective concentration [2, 4]: 32.7 µM
minimal effective concentration [2, 5]: 40.1 µM
minimal effective concentration [2, 6]: 36.2 µM
minimal effective concentration [2, 7]: 8.57 µM
minimal effective concentration [2, 8]: 43.2 µM
minimal effective concentration [2, 9]: 7.94 µM
minimal effective concentration [2, 10]: 8.62 µM

O=S(=O)(O)Oc1cc(Cl)c(-c2cc(Cl)ccc2Cl)cc1Cl [4-PCB 52 sulfate]
huvec.cyto.24hr [1]: 0.3025
huvec.mito.24hr [1]: 0.4046
huvec.mitoint.24hr [1]: 0.09717
huvec.nma.24hr [1]: 0.1382
huvec.tc.24hr [1]: 0.3025
huvec.mtl.18hr [1]: 0.4309
huvec.tlps.18hr [1]: 0.4338
huvec.tta.18hr [1]: 0
huvec.ttl.18hr [1]: 0
cm.amp.avg.90min [1]: 0.5595
cm.amp.cv.90min [1]: 0.2844
cm.bpm.90min [1]: 0.3731
cm.cam.90min [1]: 0.9201
cm.decay.rise.90min [1]: 0.4741
cm.mii.90min [1]: 0.3306
cm.mito.90min [1]: 0.9162
cm.spacing.cv.90min [1]: 0.09545
cm.tc.90min [1]: 0.9127
cm.amp.avg.24hrs [1]: 0
cm.amp.cv.24hrs [1]: 0.4327
cm.bpm.24hrs [1]: 0.3667
cm.cam.24hrs [1]: 0.3358
cm.decay.rise.24hrs [1]: 0.4673
cm.mii.24hrs [1]: 0.2133
cm.mito.24hrs [1]: 0.5368
cm.spacing.cv.24hrs [1]: 0.207
cm.tc.24hrs [1]: 0.5686
endo.cyto.24hr [1]: 0.1547
endo.mito.24hr [1]: 0.1547
endo.mitoint.24hr [1]: 0
endo.nma.24hr [1]: 0
endo.tc.24hr [1]: 0.1212
endo.mtl.18hr [1]: 0.2716
endo.tlps.18hr [1]: 0.4577
endo.tta.18hr [1]: 0.2209
endo.ttl.18hr [1]: 0.2158
minimal effective concentration [2, 3]: 10.8 µM
minimal effective concentration [2, 4]: 41.2 µM
minimal effective concentration [2, 5]: 10.6 µM
minimal effective concentration [2, 6]: 10.8 µM
minimal effective concentration [2, 7]: 8.2 µM
minimal effective concentration [2, 8]: 44.6 µM
minimal effective concentration [2, 9]: 8.28 µM
minimal effective concentration [2, 10]: 8.44 µM

Oc1ccc(-c2ccc(Cl)cc2)cc1 [4'-OH-PCB 3]
huvec.cyto.24hr [1]: 0.275
huvec.mito.24hr [1]: 0.3852
huvec.mitoint.24hr [1]: 0.4333
huvec.nma.24hr [1]: 0.3408
huvec.tc.24hr [1]: 0.275
huvec.mtl.18hr [1]: 0.9876
huvec.tlps.18hr [1]: 1
huvec.tta.18hr [1]: 0.5814
huvec.ttl.18hr [1]: 0.4466
cm.amp.avg.90min [1]: 0.5917
cm.amp.cv.90min [1]: 0.3333
cm.bpm.90min [1]: 0.8225
cm.cam.90min [1]: 0.8629
cm.decay.rise.90min [1]: 0.5699
cm.mii.90min [1]: 0.6837
cm.mito.90min [1]: 0.8821
cm.spacing.cv.90min [1]: 0.08302
cm.tc.90min [1]: 0.896
cm.amp.avg.24hrs [1]: 1
cm.amp.cv.24hrs [1]: 0.8417
cm.bpm.24hrs [1]: 0.3262
cm.cam.24hrs [1]: 0.1519
cm.decay.rise.24hrs [1]: 0.2382
cm.mii.24hrs [1]: 0.4953
cm.mito.24hrs [1]: 0.213
cm.spacing.cv.24hrs [1]: 0.1936
cm.tc.24hrs [1]: 0.2201
endo.cyto.24hr [1]: 0.1551
endo.mito.24hr [1]: 0.1551
endo.mitoint.24hr [1]: 0
endo.nma.24hr [1]: 0
endo.tc.24hr [1]: 0.1152
endo.mtl.18hr [1]: 0.4612
endo.tlps.18hr [1]: 1
endo.tta.18hr [1]: 0.4055
endo.ttl.18hr [1]: 0.4146
minimal effective concentration [2, 3]: 12.4 µM
minimal effective concentration [2, 4]: 16 µM
minimal effective concentration [2, 5]: 11.5 µM
minimal effective concentration [2, 6]: 11.3 µM
minimal effective concentration [2, 7]: 32.3 µM
minimal effective concentration [2, 8]: 15.4 µM
minimal effective concentration [2, 9]: 37.2 µM
minimal effective concentration [2, 10]: 38.4 µM

Clc1ccc(-c2ccccc2)cc1 [PCB 3, 4-chlorobiphenyl]
huvec.cyto.24hr [1]: 0
huvec.mito.24hr [1]: 0
huvec.mitoint.24hr [1]: 0
huvec.nma.24hr [1]: 0
huvec.tc.24hr [1]: 0
huvec.mtl.18hr [1]: 0.3075
huvec.tlps.18hr [1]: 0
huvec.tta.18hr [1]: 0.9931
huvec.ttl.18hr [1]: 0.7484
cm.amp.avg.90min [1]: 0.3083
cm.amp.cv.90min [1]: 0.6784
cm.bpm.90min [1]: 0.3832
cm.cam.90min [1]: 0.5745
cm.decay.rise.90min [1]: 0
cm.mii.90min [1]: 1
cm.mito.90min [1]: 0.6328
cm.spacing.cv.90min [1]: 1
cm.tc.90min [1]: 0.6608
cm.amp.avg.24hrs [1]: 0.05114
cm.amp.cv.24hrs [1]: 0.2083
cm.bpm.24hrs [1]: 0.1867
cm.cam.24hrs [1]: 0.3496
cm.decay.rise.24hrs [1]: 0.3179
cm.mii.24hrs [1]: 0.587
cm.mito.24hrs [1]: 0.5833
cm.spacing.cv.24hrs [1]: 0.1653
cm.tc.24hrs [1]: 0.6127
endo.cyto.24hr [1]: 0
endo.mito.24hr [1]: 0
endo.mitoint.24hr [1]: 0
endo.nma.24hr [1]: 0
endo.tc.24hr [1]: 0
endo.mtl.18hr [1]: 0
endo.tlps.18hr [1]: 0
endo.tta.18hr [1]: 0
endo.ttl.18hr [1]: 0
minimal effective concentration [2, 3]: 24.9 µM
minimal effective concentration [2, 4]: 6.86 µM
minimal effective concentration [2, 5]: 21.2 µM
minimal effective concentration [2, 6]: 20 µM
minimal effective concentration [2, 7]: 7.4 µM
minimal effective concentration [2, 8]: 10.9 µM
minimal effective concentration [2, 9]: 6.67 µM
minimal effective concentration [2, 10]: 6.97 µM
